Assays:
[1] = biological target: Phosphorylase b kinase gamma catalytic chain, skeletal muscle/heart isoform (Homo sapiens) (UniProt Q16816); assay: Inhibition of human PHKg1 at 500 nM by HotSpot assay relative to control
[2] = biological target: T1, MAP/microtubule affinity-regulating kinase 4 (Homo sapiens) (UniProt Q96L34); assay: Inhibition of human MARK4 at 500 nM by HotSpot assay relative to control
T1 sequence (whole entry): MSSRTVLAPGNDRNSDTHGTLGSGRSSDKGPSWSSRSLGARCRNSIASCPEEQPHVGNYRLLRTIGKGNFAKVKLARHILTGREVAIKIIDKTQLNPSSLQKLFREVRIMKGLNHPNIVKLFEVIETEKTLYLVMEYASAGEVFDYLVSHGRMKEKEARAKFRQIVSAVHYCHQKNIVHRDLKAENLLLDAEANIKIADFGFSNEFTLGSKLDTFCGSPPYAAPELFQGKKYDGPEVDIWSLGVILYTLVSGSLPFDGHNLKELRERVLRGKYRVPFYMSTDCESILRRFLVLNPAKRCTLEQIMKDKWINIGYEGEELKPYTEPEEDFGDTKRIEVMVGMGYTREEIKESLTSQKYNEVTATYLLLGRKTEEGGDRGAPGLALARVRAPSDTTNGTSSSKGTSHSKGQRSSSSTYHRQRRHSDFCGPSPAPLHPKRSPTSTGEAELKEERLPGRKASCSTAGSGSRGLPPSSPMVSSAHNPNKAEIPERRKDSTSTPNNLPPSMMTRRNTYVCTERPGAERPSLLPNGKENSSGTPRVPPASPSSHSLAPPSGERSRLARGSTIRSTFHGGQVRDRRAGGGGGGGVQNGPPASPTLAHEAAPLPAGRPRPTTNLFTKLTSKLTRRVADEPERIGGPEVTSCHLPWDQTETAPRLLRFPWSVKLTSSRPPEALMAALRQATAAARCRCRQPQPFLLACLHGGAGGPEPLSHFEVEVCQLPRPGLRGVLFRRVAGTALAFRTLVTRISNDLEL

[3] = biological target: Mitogen-activated protein kinase kinase kinase 10 (Homo sapiens) (UniProt Q02779); assay: Inhibition of human MAP3K10 at 500 nM by HotSpot assay relative to control
Chain of Mitogen-activated protein kinase kinase kinase 10 (Homo sapiens) (Q02779 whole entry, looked up): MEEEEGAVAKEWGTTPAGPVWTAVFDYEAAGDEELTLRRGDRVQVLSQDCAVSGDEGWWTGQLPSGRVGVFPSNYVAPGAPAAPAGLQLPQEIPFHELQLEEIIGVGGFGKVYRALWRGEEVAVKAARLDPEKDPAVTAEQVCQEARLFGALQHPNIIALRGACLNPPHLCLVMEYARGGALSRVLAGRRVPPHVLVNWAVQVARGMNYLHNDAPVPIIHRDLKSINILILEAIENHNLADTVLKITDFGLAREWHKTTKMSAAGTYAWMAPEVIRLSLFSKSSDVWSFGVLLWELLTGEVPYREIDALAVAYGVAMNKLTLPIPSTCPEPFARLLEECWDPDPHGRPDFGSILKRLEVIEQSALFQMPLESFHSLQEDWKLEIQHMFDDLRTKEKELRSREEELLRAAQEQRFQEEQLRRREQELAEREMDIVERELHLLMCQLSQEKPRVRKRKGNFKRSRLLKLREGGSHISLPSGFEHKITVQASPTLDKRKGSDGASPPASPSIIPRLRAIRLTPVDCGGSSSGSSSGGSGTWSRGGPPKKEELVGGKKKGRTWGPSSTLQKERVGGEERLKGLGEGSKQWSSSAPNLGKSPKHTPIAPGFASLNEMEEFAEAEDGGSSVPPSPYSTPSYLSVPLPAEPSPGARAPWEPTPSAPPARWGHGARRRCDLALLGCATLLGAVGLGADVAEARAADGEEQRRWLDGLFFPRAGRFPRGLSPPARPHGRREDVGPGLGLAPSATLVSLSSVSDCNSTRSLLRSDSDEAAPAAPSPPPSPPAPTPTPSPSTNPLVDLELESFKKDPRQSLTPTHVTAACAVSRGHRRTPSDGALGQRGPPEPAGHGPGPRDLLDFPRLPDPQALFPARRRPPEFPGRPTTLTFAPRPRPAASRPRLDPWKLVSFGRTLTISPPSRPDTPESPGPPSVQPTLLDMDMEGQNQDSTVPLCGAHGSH

[4] = biological target: Serine/threonine-protein kinase PAK 2 (Homo sapiens) (UniProt Q13177); assay: Inhibition of human PAK2 at 500 nM by HotSpot assay relative to control
Chain of Serine/threonine-protein kinase PAK 2 (Homo sapiens) (Q13177 whole entry): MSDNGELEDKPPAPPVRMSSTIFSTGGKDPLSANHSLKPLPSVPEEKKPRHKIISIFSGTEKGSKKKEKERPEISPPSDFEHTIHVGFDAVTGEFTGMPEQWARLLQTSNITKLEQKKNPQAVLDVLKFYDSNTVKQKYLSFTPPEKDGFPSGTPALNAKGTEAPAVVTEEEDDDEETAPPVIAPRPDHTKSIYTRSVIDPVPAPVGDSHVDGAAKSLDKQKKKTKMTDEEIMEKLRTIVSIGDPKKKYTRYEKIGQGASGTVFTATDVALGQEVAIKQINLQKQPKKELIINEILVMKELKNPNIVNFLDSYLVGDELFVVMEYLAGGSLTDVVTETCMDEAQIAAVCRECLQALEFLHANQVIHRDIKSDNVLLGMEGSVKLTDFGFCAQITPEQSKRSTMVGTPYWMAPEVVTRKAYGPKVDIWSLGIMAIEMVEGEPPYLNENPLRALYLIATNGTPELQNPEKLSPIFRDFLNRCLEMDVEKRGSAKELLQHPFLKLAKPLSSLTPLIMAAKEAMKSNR

[5] = biological target: Dual specificity protein kinase CLK1 (Homo sapiens) (UniProt P49759); assay: Inhibition of human CLK1 at 500 nM by HotSpot assay relative to control
Chain of Dual specificity protein kinase CLK1 (Homo sapiens) (P49759 whole entry, looked up): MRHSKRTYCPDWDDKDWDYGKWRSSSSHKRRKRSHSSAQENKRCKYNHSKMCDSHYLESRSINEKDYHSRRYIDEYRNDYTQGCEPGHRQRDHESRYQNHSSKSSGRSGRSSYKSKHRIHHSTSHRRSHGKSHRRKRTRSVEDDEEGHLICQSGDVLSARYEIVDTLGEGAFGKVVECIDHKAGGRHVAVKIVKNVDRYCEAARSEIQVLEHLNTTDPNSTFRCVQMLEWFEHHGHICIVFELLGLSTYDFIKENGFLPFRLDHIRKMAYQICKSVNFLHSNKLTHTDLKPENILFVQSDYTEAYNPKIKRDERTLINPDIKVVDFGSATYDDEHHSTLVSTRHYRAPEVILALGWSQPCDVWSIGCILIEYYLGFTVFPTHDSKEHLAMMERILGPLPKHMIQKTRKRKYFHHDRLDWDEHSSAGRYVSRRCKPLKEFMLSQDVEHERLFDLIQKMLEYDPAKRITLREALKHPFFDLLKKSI

[6] = biological target: Calcium/calmodulin-dependent protein kinase type II subunit delta (Homo sapiens) (UniProt Q13557); assay: Inhibition of human CAMK2d at 500 nM by HotSpot assay relative to control
[7] = biological target: STE20/SPS1-related proline-alanine-rich protein kinase (Homo sapiens) (UniProt Q9UEW8); assay: Inhibition of human STLK3 at 500 nM by HotSpot assay relative to control
[8] = biological target: Protein kinase C alpha type (Homo sapiens) (UniProt P17252); assay: Inhibition of human PKCa at 500 nM by HotSpot assay relative to control
[9] = biological target: Ribosomal protein S6 kinase alpha-2 (Homo sapiens) (UniProt Q15349); assay: Inhibition of human RSK3 at 500 nM by HotSpot assay relative to control
Chain of Ribosomal protein S6 kinase alpha-2 (Homo sapiens) (Q15349 whole entry): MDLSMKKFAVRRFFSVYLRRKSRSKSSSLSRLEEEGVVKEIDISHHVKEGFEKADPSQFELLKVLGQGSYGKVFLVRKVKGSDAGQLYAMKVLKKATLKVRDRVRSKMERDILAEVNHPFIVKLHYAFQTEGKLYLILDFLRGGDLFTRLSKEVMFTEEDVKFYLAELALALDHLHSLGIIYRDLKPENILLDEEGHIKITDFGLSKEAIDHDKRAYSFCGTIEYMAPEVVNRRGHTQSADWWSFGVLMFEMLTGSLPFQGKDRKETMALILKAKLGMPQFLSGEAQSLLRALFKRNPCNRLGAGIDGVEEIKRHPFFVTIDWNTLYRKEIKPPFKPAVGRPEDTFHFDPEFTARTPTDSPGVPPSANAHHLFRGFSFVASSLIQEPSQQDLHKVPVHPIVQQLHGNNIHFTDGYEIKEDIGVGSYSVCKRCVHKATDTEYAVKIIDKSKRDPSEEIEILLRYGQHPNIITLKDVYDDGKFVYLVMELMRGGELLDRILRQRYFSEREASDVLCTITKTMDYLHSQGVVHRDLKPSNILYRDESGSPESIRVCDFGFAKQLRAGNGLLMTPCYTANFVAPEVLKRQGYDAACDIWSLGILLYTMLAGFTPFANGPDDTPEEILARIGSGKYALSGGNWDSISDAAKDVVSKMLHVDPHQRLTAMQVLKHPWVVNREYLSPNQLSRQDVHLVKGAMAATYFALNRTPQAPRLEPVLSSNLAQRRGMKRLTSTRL

[10] = biological target: Mitogen-activated protein kinase 11 (Homo sapiens) (UniProt Q15759); assay: Inhibition of human MAPK11 at 500 nM by HotSpot assay relative to control
Chain of Mitogen-activated protein kinase 11 (Homo sapiens) (Q15759 whole entry): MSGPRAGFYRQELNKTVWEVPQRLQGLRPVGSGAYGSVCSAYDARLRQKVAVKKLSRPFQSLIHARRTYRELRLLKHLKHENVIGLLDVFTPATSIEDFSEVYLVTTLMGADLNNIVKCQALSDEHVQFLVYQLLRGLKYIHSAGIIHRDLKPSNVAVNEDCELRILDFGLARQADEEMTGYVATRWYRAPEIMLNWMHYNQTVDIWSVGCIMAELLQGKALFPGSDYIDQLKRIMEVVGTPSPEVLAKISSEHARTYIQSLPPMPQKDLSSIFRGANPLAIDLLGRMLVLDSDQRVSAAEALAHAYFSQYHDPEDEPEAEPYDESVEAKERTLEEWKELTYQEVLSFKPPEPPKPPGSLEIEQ

[11] = biological target: T2, Serine/threonine-protein kinase Sgk2 (Homo sapiens) (UniProt Q9HBY8); assay: Inhibition of human SGK2 at 500 nM by HotSpot assay relative to control
T2 sequence (whole entry): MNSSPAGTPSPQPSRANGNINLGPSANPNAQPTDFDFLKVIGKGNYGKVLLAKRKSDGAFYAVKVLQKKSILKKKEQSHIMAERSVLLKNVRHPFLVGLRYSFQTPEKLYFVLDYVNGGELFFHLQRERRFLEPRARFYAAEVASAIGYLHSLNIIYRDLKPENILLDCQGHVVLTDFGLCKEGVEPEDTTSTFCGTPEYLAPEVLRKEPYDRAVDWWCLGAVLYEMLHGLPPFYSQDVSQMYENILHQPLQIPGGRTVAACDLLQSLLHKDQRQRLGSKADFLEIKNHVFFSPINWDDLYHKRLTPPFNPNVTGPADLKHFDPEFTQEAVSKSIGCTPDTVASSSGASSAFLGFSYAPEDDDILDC

[12] = biological target: T3, Cytoplasmic tyrosine-protein kinase BMX (Homo sapiens) (UniProt P51813); assay: Inhibition of human BMX at 500 nM by HotSpot assay relative to control
T3 sequence (whole entry): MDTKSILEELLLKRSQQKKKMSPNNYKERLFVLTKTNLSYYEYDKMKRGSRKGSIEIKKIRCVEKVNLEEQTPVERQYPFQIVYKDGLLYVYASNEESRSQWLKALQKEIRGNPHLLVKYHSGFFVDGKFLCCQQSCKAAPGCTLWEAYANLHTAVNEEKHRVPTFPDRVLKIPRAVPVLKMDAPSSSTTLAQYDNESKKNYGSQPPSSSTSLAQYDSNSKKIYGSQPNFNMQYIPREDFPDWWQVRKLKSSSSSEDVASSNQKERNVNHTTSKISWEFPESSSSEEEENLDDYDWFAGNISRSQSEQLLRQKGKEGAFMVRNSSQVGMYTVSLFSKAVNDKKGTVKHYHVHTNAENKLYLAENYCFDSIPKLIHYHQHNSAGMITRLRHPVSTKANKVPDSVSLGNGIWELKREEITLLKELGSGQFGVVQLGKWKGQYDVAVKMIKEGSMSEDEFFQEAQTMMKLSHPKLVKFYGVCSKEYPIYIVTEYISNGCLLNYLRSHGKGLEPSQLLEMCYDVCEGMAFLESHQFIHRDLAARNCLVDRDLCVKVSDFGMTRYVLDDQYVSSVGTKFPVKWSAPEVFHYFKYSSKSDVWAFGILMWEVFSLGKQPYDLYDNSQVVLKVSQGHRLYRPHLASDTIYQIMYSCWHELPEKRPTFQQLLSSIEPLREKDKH

[13] = biological target: Calcium/calmodulin-dependent protein kinase type 1G (Homo sapiens) (UniProt Q96NX5); assay: Inhibition of human CAMK1g at 500 nM by HotSpot assay relative to control
Chain of Calcium/calmodulin-dependent protein kinase type 1G (Homo sapiens) (Q96NX5 whole entry): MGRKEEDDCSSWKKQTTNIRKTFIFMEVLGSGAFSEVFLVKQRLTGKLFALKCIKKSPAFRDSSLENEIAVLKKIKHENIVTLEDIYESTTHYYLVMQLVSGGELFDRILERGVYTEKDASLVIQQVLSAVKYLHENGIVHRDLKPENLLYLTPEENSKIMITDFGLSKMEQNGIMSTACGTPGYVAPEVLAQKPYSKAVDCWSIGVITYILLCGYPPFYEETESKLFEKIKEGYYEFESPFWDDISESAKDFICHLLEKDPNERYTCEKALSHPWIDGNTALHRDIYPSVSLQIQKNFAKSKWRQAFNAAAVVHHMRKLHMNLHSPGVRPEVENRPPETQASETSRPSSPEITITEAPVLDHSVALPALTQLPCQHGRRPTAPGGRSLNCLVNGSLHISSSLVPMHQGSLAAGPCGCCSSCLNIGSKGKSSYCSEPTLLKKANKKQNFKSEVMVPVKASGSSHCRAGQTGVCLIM

Chain of Phosphorylase b kinase gamma catalytic chain, skeletal muscle/heart isoform (Homo sapiens) (Q16816 whole entry, looked up, canonical isoform): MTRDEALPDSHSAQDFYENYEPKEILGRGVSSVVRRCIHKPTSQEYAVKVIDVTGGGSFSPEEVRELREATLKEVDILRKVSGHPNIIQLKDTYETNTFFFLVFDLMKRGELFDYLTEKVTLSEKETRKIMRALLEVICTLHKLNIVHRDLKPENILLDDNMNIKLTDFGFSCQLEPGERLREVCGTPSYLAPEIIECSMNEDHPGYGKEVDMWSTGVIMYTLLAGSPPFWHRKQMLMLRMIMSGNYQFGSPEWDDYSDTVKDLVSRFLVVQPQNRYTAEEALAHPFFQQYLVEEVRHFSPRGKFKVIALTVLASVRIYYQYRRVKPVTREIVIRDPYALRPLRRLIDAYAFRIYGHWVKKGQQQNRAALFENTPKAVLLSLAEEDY

Structure (SMILES) | inhibition [1] [%] | inhibition [2] [%] | inhibition [3] [%] | inhibition [4] [%] | inhibition [5] [%] | inhibition [6] [%] | inhibition [7] [%] | inhibition [8] [%] | inhibition [9] [%] | inhibition [10] [%] | inhibition [11] [%] | inhibition [12] [%] | inhibition [13] [%]
Nc1n[nH]c2nnc(-c3c(-c4ccccc4)nn4ccccc34)cc12 | -0.96 | -4.7 | 9.29 | -0.21 | -8.27 | 3.52 | 10.9 | 12.8 | 3.51 | 10 | 1.2 | 15.6 | 0.77
Oc1n[nH]c2nnc(-c3c(-c4ccccc4)nn4ccccc34)cc12 | -1.18 | -3.17 | 5.25 | -1.47 | -5.95 | 2.55 | 7.91 | 14.1 | -4.14 | 5.77 | 3.78 | 6.43 | 0.26
